Tests used:
[1] = molecular target: D(2) dopamine receptor (Homo sapiens) (UniProt P14416); conditions: Compound concentration 10.0 uM
[2] = molecular target: cAMP-dependent protein kinase catalytic subunit beta (Homo sapiens) (UniProt P22694); test: PRKACB (PRKAC BET Invitrogen Lab (UK) kinase screen (BI); conditions: Compound concentration 1.0 uM
[3] = molecular target: Delta-type opioid receptor (Homo sapiens) (UniProt P41143); conditions: Compound concentration 10.0 uM
[4] = molecular target: Mitogen-activated protein kinase 14 (Homo sapiens) (UniProt Q16539); conditions: Compound concentration 1.0 uM
[5] = molecular target: Casein kinase I isoform delta (Homo sapiens) (UniProt P48730); conditions: Compound concentration 1.0 uM
[6] = molecular target: Serine/threonine-protein kinase MRCK gamma (Homo sapiens) (UniProt Q6DT37); test: CDC42 BPG (MRCKG) Invitrogen Lab (UK) kinase screen (BI); conditions: Compound concentration 1.0 uM
[7] = molecular target: Serine/threonine-protein kinase PLK1 (Homo sapiens) (UniProt P53350)
[8] = molecular target: Serine/threonine-protein kinase SIK2 (Homo sapiens) (UniProt Q9H0K1); test: SNF1LK2 Invitrogen Lab (UK) kinase screen (BI); conditions: Compound concentration 1.0 uM
[9] = molecular target: cAMP-dependent protein kinase catalytic subunit PRKX (Homo sapiens) (UniProt P51817); conditions: Compound concentration 1.0 uM
[10] = molecular target: Serine/threonine-protein kinase 26 (Homo sapiens) (UniProt Q9P289); conditions: Compound concentration 1.0 uM
[11] = molecular target: Dual specificity mitogen-activated protein kinase kinase 6 (Homo sapiens) (UniProt P52564); test: MAP2K6 Invitrogen Lab (UK) kinase screen (BI); conditions: Compound concentration 1.0 uM
[12] = molecular target: Serine/threonine-protein kinase pim-3 (Homo sapiens) (UniProt Q86V86); test: PIM3 Invitrogen Lab (UK) kinase screen (BI); conditions: Compound concentration 1.0 uM
[13] = molecular target: Serine/threonine-protein kinase Chk2 (Homo sapiens) (UniProt O96017); test: CHEK2 Invitrogen Lab (UK) kinase screen (BI); conditions: Compound concentration 1.0 uM
[14] = molecular target: MAP kinase-interacting serine/threonine-protein kinase 2 (Homo sapiens) (UniProt Q9HBH9); test: MKNK2 (MNK2) Invitrogen Lab (UK) kinase screen (BI); conditions: Compound concentration 1.0 uM
[15] = molecular target: Tyrosine-protein kinase Yes (Homo sapiens) (UniProt P07947); test: YES1 Invitrogen Lab (UK) kinase screen (BI); conditions: Compound concentration 1.0 uM
[16] = molecular target: Cyclin-dependent kinase 19 (Homo sapiens) (UniProt Q9BWU1); conditions: Compound concentration 1.0 uM
[17] = molecular target: Myosin light chain kinase 2, skeletal/cardiac muscle (Homo sapiens) (UniProt Q9H1R3); conditions: Compound concentration 1.0 uM
[18] = molecular target: Tyrosine-protein kinase ABL1 (Homo sapiens) (UniProt P00519)
[19] = molecular target: Serotonin 1 (5-HT1) receptor (Rattus norvegicus) (UniProt P28564+P30940+P19327+P28565); test: 5HT1/R Eurofins SafetyScreen44 (BI); assay type: protein assay
[20] = molecular target: Serine/threonine-protein kinase NIM1 (Homo sapiens) (UniProt Q8IY84); conditions: Compound concentration 1.0 uM
[21] = molecular target: Receptor tyrosine-protein kinase erbB-4 (Homo sapiens) (UniProt Q15303); conditions: Compound concentration 1.0 uM
[22] = molecular target: PI3-kinase p110-alpha/p85-alpha (Homo sapiens) (UniProt P27986+P42336); test: PIK3CAPIK3R1 Invitrogen Lab (UK) kinase screen (BI); assay type: protein-complex assay; conditions: Compound concentration 1.0 uM
[23] = molecular target: STE20/SPS1-related proline-alanine-rich protein kinase (Homo sapiens) (UniProt Q9UEW8); test: STK39 (STLK3) Invitrogen Lab (UK) kinase screen (BI); conditions: Compound concentration 1.0 uM
[24] = molecular target: Polyunsaturated fatty acid lipoxygenase ALOX15 (Oryctolagus cuniculus) (UniProt P12530); test: 15LO Eurofins SafetyScreen44 (BI); conditions: Compound concentration 10.0 uM
[25] = molecular target: Mitogen-activated protein kinase kinase kinase 7 (Homo sapiens) (UniProt O43318); conditions: Compound concentration 1.0 uM
[26] = molecular target: Activin receptor type-1 (Homo sapiens) (UniProt Q04771); test: ACVR1 Invitrogen Lab (UK) kinase screen (BI); conditions: Compound concentration 1.0 uM
[27] = molecular target: Voltage-dependent L-type calcium channel subunit alpha-1C (CA+/PAASITE) (Rattus norvegicus, UniProt P22002); test: CA+/PAASITE Eurofins SafetyScreen44 (BI); conditions: read-out: % Ctrl
[28] = molecular target: Myosin-IIIb (Homo sapiens) (UniProt Q8WXR4); conditions: Compound concentration 1.0 uM
Renin (Homo sapiens) = Renin (Homo sapiens) (UniProt P00797); conditions: Compound concentration 10.0 uM
[29] = molecular target: Protein-tyrosine kinase 2-beta (Homo sapiens) (UniProt Q14289)
[30] = molecular target: Sigma non-opioid intracellular receptor 1 (Homo sapiens) (UniProt Q99720); conditions: Compound concentration 10.0 uM
[31] = molecular target: Discoidin domain-containing receptor 2 (Homo sapiens) (UniProt Q16832); conditions: Compound concentration 1.0 uM
[32] = molecular target: Vascular endothelial growth factor receptor 2 (Homo sapiens) (UniProt P35968)
[33] = molecular target: Cyclin-dependent kinase 5/CDK5 activator 1 (Homo sapiens) (UniProt Q00535+Q15078); conditions: Compound concentration 1.0 uM
Chymase (Homo sapiens) = Chymase (Homo sapiens) (UniProt P23946); conditions: Compound concentration 10.0 uM
[34] = molecular target: Phosphatidylinositol 4-phosphate 5-kinase type-1 alpha (Homo sapiens) (UniProt Q99755); test: PIP5K1A Invitrogen Lab (UK) kinase screen (BI); conditions: Compound concentration 1.0 uM
[35] = molecular target: Interleukin-1 receptor-associated kinase 3 (Homo sapiens, UniProt Q9Y616); test: Dose response measurement (IRAK3)
[36] = molecular target: Calcium/calmodulin-dependent protein kinase type 1G (Homo sapiens) (UniProt Q96NX5); conditions: Compound concentration 1.0 uM
[37] = molecular target: Activated CDC42 kinase 1 (Homo sapiens) (UniProt Q07912); conditions: Compound concentration 1.0 uM
[38] = molecular target: Angiopoietin-1 receptor (Homo sapiens) (UniProt Q02763)
[39] = molecular target: Adrenergic receptor alpha-1 (Rattus norvegicus) (UniProt P15823+P23944+P43140)
[40] = Compound concentration 100.0 uM

Chain of Protein-tyrosine kinase 2-beta (Homo sapiens) (Q14289 whole entry, looked up): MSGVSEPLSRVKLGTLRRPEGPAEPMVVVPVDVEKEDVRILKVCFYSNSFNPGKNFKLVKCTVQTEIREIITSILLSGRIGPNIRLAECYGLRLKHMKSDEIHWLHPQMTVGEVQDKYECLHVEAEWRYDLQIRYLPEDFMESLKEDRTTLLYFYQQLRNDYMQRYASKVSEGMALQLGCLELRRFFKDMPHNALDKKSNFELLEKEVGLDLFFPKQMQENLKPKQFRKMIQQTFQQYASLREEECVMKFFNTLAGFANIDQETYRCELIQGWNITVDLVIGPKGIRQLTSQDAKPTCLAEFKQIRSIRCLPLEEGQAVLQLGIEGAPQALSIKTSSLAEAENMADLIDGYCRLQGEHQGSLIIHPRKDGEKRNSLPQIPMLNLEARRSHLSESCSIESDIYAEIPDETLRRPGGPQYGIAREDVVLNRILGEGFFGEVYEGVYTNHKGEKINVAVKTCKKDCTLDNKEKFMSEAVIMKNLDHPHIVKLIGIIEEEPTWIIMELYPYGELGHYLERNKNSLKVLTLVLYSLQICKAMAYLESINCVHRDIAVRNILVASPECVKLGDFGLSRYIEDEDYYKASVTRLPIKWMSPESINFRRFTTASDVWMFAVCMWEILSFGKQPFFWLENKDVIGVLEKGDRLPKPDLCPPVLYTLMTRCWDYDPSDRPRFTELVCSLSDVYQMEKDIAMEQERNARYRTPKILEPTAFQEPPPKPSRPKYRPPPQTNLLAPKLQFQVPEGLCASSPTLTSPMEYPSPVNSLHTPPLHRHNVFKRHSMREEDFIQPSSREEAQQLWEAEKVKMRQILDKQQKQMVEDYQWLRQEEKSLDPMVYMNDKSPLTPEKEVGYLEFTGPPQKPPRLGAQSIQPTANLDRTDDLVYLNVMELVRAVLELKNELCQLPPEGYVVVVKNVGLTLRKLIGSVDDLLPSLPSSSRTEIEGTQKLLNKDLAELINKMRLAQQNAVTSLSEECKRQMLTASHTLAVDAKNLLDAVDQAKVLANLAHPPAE
Chain of Angiopoietin-1 receptor (Homo sapiens) (Q02763 whole entry): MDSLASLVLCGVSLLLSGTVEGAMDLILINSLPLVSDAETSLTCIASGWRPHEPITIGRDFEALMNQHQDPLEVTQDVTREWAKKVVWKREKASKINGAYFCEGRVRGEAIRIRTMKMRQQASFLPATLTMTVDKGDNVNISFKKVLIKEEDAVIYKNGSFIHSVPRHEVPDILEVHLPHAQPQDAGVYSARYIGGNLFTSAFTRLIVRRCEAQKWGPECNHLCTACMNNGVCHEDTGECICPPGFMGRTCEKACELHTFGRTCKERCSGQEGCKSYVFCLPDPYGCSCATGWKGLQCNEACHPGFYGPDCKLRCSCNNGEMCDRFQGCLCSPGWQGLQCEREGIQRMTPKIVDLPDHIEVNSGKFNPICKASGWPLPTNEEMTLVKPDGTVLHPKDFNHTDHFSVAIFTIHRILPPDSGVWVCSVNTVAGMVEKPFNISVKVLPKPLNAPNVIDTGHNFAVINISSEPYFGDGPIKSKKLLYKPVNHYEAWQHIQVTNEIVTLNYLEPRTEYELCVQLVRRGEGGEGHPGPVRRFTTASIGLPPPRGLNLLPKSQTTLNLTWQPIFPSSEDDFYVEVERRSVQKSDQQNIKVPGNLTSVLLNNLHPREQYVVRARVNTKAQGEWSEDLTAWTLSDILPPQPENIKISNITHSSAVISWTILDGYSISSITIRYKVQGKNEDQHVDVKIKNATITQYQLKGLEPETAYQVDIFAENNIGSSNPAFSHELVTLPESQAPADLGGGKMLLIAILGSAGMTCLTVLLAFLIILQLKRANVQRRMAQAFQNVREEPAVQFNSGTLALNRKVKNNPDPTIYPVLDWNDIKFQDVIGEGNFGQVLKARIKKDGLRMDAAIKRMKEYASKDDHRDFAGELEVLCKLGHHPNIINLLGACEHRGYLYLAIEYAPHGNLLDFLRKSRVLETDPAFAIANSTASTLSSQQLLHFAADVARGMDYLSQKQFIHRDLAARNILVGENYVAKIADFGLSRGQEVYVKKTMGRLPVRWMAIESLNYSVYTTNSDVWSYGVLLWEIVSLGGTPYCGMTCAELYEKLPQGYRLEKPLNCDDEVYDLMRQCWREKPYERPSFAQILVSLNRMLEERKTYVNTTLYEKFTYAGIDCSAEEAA
Chain of Vascular endothelial growth factor receptor 2 (Homo sapiens) (P35968 whole entry): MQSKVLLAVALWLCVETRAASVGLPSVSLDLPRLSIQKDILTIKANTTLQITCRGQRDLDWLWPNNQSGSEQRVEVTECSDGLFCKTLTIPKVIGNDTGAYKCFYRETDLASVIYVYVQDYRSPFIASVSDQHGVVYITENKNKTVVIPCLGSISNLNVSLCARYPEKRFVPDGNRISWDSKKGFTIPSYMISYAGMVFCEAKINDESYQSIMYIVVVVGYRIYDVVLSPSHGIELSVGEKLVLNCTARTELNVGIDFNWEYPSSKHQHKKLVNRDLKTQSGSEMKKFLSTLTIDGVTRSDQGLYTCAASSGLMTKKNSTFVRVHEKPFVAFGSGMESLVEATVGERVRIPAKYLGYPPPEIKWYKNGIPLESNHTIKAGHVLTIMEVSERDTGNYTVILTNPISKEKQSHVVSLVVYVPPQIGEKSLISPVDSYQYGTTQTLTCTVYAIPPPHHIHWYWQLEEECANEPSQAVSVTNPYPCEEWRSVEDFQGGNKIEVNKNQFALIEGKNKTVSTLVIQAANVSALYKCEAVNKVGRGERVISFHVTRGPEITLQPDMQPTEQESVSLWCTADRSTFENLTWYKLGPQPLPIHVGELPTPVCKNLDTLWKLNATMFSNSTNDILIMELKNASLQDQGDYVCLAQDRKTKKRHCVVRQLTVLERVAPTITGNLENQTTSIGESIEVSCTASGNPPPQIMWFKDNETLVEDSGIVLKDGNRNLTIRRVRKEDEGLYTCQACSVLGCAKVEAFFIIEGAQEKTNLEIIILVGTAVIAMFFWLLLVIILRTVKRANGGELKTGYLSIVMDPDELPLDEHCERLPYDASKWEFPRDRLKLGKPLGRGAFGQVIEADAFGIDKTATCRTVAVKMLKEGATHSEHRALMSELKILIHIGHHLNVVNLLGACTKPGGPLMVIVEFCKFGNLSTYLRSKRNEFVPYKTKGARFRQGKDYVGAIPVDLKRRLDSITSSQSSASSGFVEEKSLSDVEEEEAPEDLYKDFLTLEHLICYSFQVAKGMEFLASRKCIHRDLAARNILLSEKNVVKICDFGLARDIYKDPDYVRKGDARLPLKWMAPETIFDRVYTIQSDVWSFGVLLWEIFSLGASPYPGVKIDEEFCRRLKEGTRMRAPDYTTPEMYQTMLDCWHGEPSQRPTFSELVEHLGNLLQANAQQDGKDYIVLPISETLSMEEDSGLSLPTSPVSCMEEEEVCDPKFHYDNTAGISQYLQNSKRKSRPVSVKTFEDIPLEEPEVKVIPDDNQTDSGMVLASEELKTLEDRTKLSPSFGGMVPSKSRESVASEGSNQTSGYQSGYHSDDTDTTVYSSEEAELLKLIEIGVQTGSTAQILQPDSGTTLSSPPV
Chain of Tyrosine-protein kinase ABL1 (Homo sapiens) (P00519 whole entry): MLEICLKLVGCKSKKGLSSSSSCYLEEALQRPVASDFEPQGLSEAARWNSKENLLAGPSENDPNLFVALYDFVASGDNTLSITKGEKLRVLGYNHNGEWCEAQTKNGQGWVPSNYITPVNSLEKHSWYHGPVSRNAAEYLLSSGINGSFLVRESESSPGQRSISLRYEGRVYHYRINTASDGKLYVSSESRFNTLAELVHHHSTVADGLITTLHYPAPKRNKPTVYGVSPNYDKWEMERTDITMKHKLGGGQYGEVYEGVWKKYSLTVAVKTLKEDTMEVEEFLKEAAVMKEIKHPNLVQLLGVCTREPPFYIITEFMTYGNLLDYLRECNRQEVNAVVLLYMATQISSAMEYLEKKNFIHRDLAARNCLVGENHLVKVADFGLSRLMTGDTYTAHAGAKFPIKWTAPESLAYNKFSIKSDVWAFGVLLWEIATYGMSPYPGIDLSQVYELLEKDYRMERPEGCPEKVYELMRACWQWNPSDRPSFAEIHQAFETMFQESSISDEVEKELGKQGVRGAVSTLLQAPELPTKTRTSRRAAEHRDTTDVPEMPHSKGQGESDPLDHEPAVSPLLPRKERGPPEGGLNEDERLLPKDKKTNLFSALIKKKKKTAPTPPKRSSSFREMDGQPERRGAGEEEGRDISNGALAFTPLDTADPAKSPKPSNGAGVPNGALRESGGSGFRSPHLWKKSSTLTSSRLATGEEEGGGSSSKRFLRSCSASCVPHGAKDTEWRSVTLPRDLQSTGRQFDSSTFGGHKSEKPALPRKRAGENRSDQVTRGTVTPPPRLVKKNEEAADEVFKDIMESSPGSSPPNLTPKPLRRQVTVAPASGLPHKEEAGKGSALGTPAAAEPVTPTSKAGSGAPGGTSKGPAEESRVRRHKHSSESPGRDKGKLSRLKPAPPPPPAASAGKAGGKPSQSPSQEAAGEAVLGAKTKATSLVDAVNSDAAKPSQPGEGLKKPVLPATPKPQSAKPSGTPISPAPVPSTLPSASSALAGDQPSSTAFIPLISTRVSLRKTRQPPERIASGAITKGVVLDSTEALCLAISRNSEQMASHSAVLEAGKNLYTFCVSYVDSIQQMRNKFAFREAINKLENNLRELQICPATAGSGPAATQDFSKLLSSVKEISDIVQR
Chain of Renin (Homo sapiens) (P00797 whole entry): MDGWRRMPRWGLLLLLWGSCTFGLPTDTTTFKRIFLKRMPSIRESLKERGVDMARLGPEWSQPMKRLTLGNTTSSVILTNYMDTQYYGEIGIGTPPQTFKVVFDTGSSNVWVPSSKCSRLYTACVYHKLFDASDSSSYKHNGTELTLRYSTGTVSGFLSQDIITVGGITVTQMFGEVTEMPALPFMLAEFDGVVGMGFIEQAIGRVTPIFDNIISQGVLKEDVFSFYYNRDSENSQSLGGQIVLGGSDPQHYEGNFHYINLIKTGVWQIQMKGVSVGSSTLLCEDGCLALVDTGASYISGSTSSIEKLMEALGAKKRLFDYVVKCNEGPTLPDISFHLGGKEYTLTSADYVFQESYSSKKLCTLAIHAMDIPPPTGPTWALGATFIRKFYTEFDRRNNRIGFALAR

CCC(F)(F)c1cc(N2CCC(S(C)(=O)=O)CC2)nc2sc(C(N)=O)c(N)c12 [BI-605906] showed an inhibition [1] of 69.8%, a residual activity [2] of 77% and an inhibition [3] of 3.97%. For the same molecule, the residual activity [4] was 89%, the residual activity [5] was 100% and the residual activity [6] was 111%. The residual activity ([7]; Compound concentration 1.0 uM) was 94%, the residual activity ([7]; Compound concentration 10.0 uM) was 109% and the residual activity [8] was 84%. It also gave a residual activity [9] of 96%, a residual activity [10] of 109% and a residual activity [11] of 75%. The residual activity [12] was 103%, the residual activity [13] was 79% and the residual activity [14] was 68%. The residual activity [15] was 74%, the residual activity [16] was 87% and the residual activity [17] was 98%. For the same molecule, the residual activity ([18]; Compound concentration 1.0 uM) was 95%, the residual activity ([18]; Compound concentration 10.0 uM) was 77% and the residual activity ([19]; Compound concentration 10.0 uM) was 119%. For the same molecule, the residual activity [19, 40] was 107%, the residual activity [20] was 93% and the residual activity [21] was 94%. It also gave a residual activity [22] of 103%, a residual activity [23] of 88% and a residual activity [24] of 79%. The residual activity [25] was 101%, the residual activity [26] was 79% and the activity at 10 µM ([27]; compound concentration 10 uM) was 99% (not active). For the same molecule, the activity at 100 µM ([27]; compound concentration 100 uM) was 70% (not active), the residual activity [28] was 90% and the residual activity (Renin (Homo sapiens)) was 100%. For the same molecule, the residual activity ([29]; Compound concentration 1.0 uM) was 91%, the residual activity ([29]; Compound concentration 10.0 uM) was 70% and the inhibition [30] was 8.89%. The residual activity [31] was 99%, the residual activity ([32]; Compound concentration 1.0 uM) was 98% and the residual activity ([32]; Compound concentration 10.0 uM) was 79%. It also gave a residual activity [33] of 99%, a residual activity (Chymase (Homo sapiens)) of 93% and a residual activity [34] of 83%. For the same molecule, the IC50 [35] was 921 nM (not active), the residual activity [36] was 90% and the residual activity [37] was 97%. For the same molecule, the residual activity ([38]; Compound concentration 1.0 uM) was 93%, the residual activity ([38]; Compound concentration 10.0 uM) was 82% and the residual activity ([39]; Compound concentration 10.0 uM) was 109%. It also gave a residual activity [39, 40] of 93%.

Reference: ChEMBL document CHEMBL4800722, “Data for DCP probe BI 605906” (2021)
